In a melting point compilation (Tetko et al.):

Compound	melting point
Cc1cccc2cc3c(ccc4ccccc43)cc12	156 °C
COC(=O)c1ccc(OC)c(C#N)c1	124 to 125 °C
Cc1nc(-c2cccc(C(=O)Cl)c2)no1	93 °C
COc1ccc(-n2c(=S)[nH]c(=O)c3cccnc32)cc1	261 to 263 °C
N#Cc1c(-c2ccccc2)c2c(=O)[nH]n(-c3ccccc3)c2[nH]c1=S	142 °C
CC12CCC(C(=O)/C(=N\Nc3ccccc3)C1=O)C2(C)C (stereo not drawn)	117 °C
Oc1ccc(Nc2ccc3ccccc3c2)cc1	140 °C
O=C(O)C1CC(=O)N(Cc2cccs2)C1 (stereo not drawn)	144 to 146 °C
Cc1ccc2c(ccc3ccccc32)c1	58 °C
CCOC(=O)C(Br)C(=O)OCC	-54 °C
CCC1(C2=CC3CCC(C2)C3)C(=O)NC(=O)NC1=O (stereo not drawn)	213 °C
O=C(S)c1ccccc1	24 °C
CCCCCn1c(O)nnc1S	146 to 149 °C
NC(=NO)c1ccc(F)cc1	92 to 95 °C
O=C(Nc1cccnc1Cl)c1ccc(Cl)cc1	146 to 148 °C
CC1(C)CC(=O)C(=NNc2ccc(O)cc2)C(=O)C1	206 °C
CC1(C)C2CCC1(C)C(O)C2 (stereo not drawn)	214 °C
OC1(C#CC#CC2(O)CCCCC2)CCCCC1	175 °C
NC(=S)c1ccc2c(c1)CCO2	145 to 155 °C
CCNC(=O)C(C)OC(=O)Nc1ccccc1 (stereo not drawn)	119 °C
FC(F)=C(F)C(F)(F)F	-156 °C
Clc1ccc(C2NN=C3c4ccccc4CCC32)cc1 (stereo not drawn)	181 to 184 °C
CNP(=O)(OC)Oc1ccc(C(C)(C)C)cc1Cl (stereo not drawn)	60 °C
CCOC(=O)C1=C2c3ncccc3ON2C(Cl)C(Cl)C1Cl (stereo not drawn)	105 °C
CC(C)(C)Oc1ccccc1	-24 °C
O=C1C[C@@H](C(=O)O)c2ccccc21	113 °C

Compound	melting point
O=C1NC(=S)NC(=O)C1=Cc1ccc(-c2ccc(Cl)cc2)o1	280 °C
CN1C(CC(=O)c2ccccc2)CCCC1CC(O)c1ccccc1 (stereo not drawn)	130 °C
CC(C)COC(=O)c1ccc(O)cc1	76 °C
CC(=O)OCc1cn(C(C)=O)c2ccccc12	85 to 86 °C
O=C(O)C1OC(O)C(O)C(O)C1O (stereo not drawn)	158 to 162 °C
COc1ccc2c(c1)C(=O)C(=O)N2	200 °C
N#CCC(=O)N1CCOCC1	87 to 89 °C
O=[N+]([O-])c1c(Br)sc(Br)c1[N+](=O)[O-]	136 °C
CC(C)(C)NC(=O)C1CCC2C3CCC4NC(=O)C=CC4(C)C3CCC12C (stereo not drawn)	253 °C
Brc1coc2ccccc12	35 to 38 °C
COc1ccc(N)c(C(=O)O)c1	151 °C
Cc1ccccc1N1CSc2nnc(-c3cccnc3)n2C1	202 °C
CCC1CC(OC(=O)c2ccc([N+](=O)[O-])cc2)CC(C)(C)N1O (stereo not drawn)	145 to 147 °C
CC(=O)Nc1ccc(Br)c(C(=O)O)c1	186 to 188 °C
O=CC(Br)=C(Br)C(=O)O	123 °C
O=C(c1cc(O)c(O)c(O)c1)c1ccc(O)c(O)c1O	270 °C
COc1ccc(-n2ncc(C(=O)Cl)c2C)cc1	86 °C
CNCC(O)c1ccc(O)cc1 (stereo not drawn)	184 °C
CC(=O)Nc1c(I)c(NC(C)=O)c(I)c(C(=O)O)c1I	300 °C
O=C(c1ccc(Br)cc1)c1[nH]c2c(c1O)C(c1ccc(Br)cc1)c1c(c3ccccc3oc1=O)O2 (stereo not drawn)	230 °C
C[C@H]1NC(=O)O[C@H]1c1ccccc1	118 to 121 °C
N#CC1(c2ccc(F)cc2)CCCCC1	33 to 38 °C
C=CCOc1cc(O)c(C(C)=O)c(O)c1	145 to 146 °C
O=S(=O)(O)NC1CCCCC1	170 °C
CC/C(=N/NC(N)=O)C1=CC2(C)CCC1C2(C)C (stereo not drawn)	196 to 197 °C
N#Cc1ccc2c(c1)OCCO2	104 to 106 °C

Compound	melting point
CC12CCCC1C1CCC(CCC(=O)O)C(C)(CCC(=O)O)C1CC2 (stereo not drawn)	232 °C
CCc1c(C)n[nH]c1C	40 to 45 °C
CC(C)(C)c1cc(C(=S)Nc2ccccc2)cc(C(C)(C)C)c1O	227 to 228 °C
COC(=O)[C@H](CC(=O)O)Cc1cccc2ccccc12	113 °C
Nc1c(F)cc(Br)cc1F	67 to 68 °C
CC(=O)N1CCSC1C(=O)NN (stereo not drawn)	193 to 196 °C
Cc1onc(-c2c(Cl)cccc2Cl)c1C=O	100 to 103 °C
O=C(O)C1CCCN(C(=O)OCc2ccccc2)C1 (stereo not drawn)	90 to 94 °C
Clc1cccc2c(-c3ccccc3)c(-c3ccccc3)[nH]c12	97 to 98 °C
CSC(=NS(=O)(=O)c1ccc(Br)cc1)SC	100 to 105 °C
CC(=O)c1c(C(C)C)cc(C(C)C)cc1C(C)C	87 °C
COc1ccc(C2(C#N)CCCCC2)cc1	43 °C
BrC1CCC(Br)C(Br)CCC(Br)C(Br)CCC1Br (stereo not drawn)	173 to 177 °C
Cc1ccc(O)cc1Br	56 °C
CCc1ccccc1-c1ccccc1	-6 °C
O=[N+]([O-])c1c(O)cc(O)cc1O	189 °C
CCN(CC)C(=O)C(C)Oc1cccc2ccccc12 (stereo not drawn)	75 °C
CC(C)(C)S(=O)(=O)c1cnc(-c2ccccn2)nc1N	266 to 268 °C
c1cnc2c(ccc3nccnc32)n1	249 to 252 °C
Cn1ncc2c(NCCN)ncnc21	297 °C
CSCCC(N)CO (stereo not drawn)	31 to 36 °C
CC(C)(C)OC(=O)N[C@H](Cc1ccc(C#N)cc1)C(=O)O	153 °C
Cc1c(S(=O)(=O)c2ccc(Cl)cc2)csc1C(=O)O	252 to 256 °C
NCCCOCCCCOCCCN	4.5 °C
O=[N+]([O-])c1cc2c3ccccc3ccc2c2ccccc12	210 to 213 °C
CC(C)(C)OC(=O)N[C@]1(C(=O)O)C[C@@H]1c1ccccc1	180 to 182 °C

Compound	melting point
CC(=O)NCc1cnccc1C	92 °C
CC(C)CC(NC(=O)C(O)C(N)Cc1ccccc1)C(=O)O (stereo not drawn)	233 °C
Cc1c(S(=O)(=O)c2ccc(Cl)cc2)csc1C(=O)NN	165 to 168 °C
O=Cc1ccccc1O	-3.5 °C
CC(CCC(=O)O)C1CCC2C3C(O)CC4CC5(CCC4(C)C3CC(=O)C12C)OCCO5 (stereo not drawn)	219 °C
CCc1oc2ccccc2c1C(=O)c1cc(I)c(O)c(I)c1	167 °C
Cc1oc(-c2ccccc2)cc1C(=O)Cl	85 to 88 °C
CN(C)C(CSC(N)=O)CSC(N)=O	188 °C
O=Cc1ccc(O)c(O)c1O	163 °C
COc1ccc(/C=N/n2c(S)nnc2C(F)(F)F)cc1	188 °C
O=[N+]([O-])c1ccc2c(c1)OCCOCCOc1ccccc1OCCOCCO2	190 to 195 °C
CN(N=O)c1ccccc1	14.7 °C
Cc1cc(-c2onc(C)c2C(=O)O)no1	167 °C
N=C1NC(=O)C(=NNc2cccc([N+](=O)[O-])c2)S1	208 °C
COc1ccc(C(=O)C2=NOC3C(=O)N(c4cc(Cl)ccc4Cl)C(=O)C23)cc1 (stereo not drawn)	147 °C
Cc1nn(-c2ccccc2)c(C)c1C(=O)Cl	58 to 59 °C
CCCN(CCC)c1c([N+](=O)[O-])cc(C)cc1[N+](=O)[O-]	80 °C
S=C1NCCN1	203 °C
COc1ccc(C(F)(F)F)cc1CBr	36 °C
CCOC(=O)CSc1sc(C(=O)OCC)c(N)c1C#N	141 °C
CN(C)c1ccc(/C=C(\C#N)c2nc(-c3cccc4ccccc34)cs2)cc1	128 °C
COc1cc(NS(C)(=O)=O)ccc1Nc1c2ccccc2nc2ccccc12	235 °C
C(#Cc1ccc(CCc2ccccc2)cc1)c1ccccc1	105 °C
Clc1cc(Cl)c2c(c1)Oc1cc(Cl)c(Cl)cc1O2	194 °C
CC(C)(C)OC(=O)N1CC(C(=O)O)C1	102 °C
CCC=C1CCC2C3CCC4CC(OC(C)=O)CCC4(C)C3CCC12C (stereo not drawn)	114 °C

Compound	melting point
CN(C)C(=O)NC1CCCCCCC1	138 °C
O=C=Nc1cccc2nsnc12	81 to 82 °C
O=C(O)CNc1ccc(Br)cc1C(=O)O	211 to 215 °C
Oc1ccnc2c(C(F)(F)F)cccc12	172 °C
O=C(NC(Cc1ccccn1)C(=O)O)OCC1c2ccccc2-c2ccccc21 (stereo not drawn)	154 °C
O=Cc1ccc2c(c1)C(=O)c1c(Cl)c(Cl)c(Cl)c(Cl)c1C2=O	183 °C
COC(=O)c1sccc1N=C=S	57 to 59 °C
COC(=O)CC(=O)c1ccccc1Cl	25 °C
CC(=O)NC(=O)NC(C)=O	154 °C
COc1ccc2cc1Oc1ccc(cc1)CC1c3cc(c(OC)cc3CCN1C)Oc1c(OC)c(OC)cc3c1C(C2)N(C)CC3 (stereo not drawn)	218 °C
Nc1ccc(S(=O)(=O)Nc2cnc3ccccc3n2)cc1	248 °C
Nc1ccc(Br)cc1F	40 °C
O=C1Nc2ccc(Cl)cc2C1=O	242 to 250 °C
Nc1c(OC2C=CC(N3CCCCCC3=O)=CC2)cc(O)c2c1C(=O)c1ccccc1C2=O (stereo not drawn)	164 °C
CCOP(=S)(OCC)Oc1ccc(=O)n(-c2ccccc2)n1	56.2 °C
Cc1nn(C)c(Cl)c1S(=O)(=O)O	308 to 310 °C
COC(=O)c1cc2oc(C=O)cc2n1C	162 to 163 °C
O=S(=O)(O)CCCNC(CO)(CO)CO	240 °C
COc1c2occc2cc2ccc(=O)oc12	148 °C
CN1CCN(Cc2ccccc2I)CC1	37 to 38 °C
C/C=C/C(=O)NNc1ccccc1	190 °C
COc1cccc(C2(O)CCCCC2CN(C)C)c1 (stereo not drawn)	180 °C
CCN(CC)C(=O)CC(C)=O	-73 °C
COc1ccccc1N1CCN(C(=O)c2ccc(N)cc2)CC1	212 to 214 °C
